Laboratory results as given in patent publication US9359418B2, “Inhibitors of the T cell-specific alternative p38 activation pathway and methods of use” (The United States of America, as represented by the …, priority 2012, dated 2016).

Tests used:
KPC mice = assay: KPC mice, PanIN progression and cancer formation after intravenous treatment; type: in vivo
Procedure: FIGS. 13A-13D are graphs showing that (11R)-71-85 inhibits PanIN and cancer formation in KPC mice. (FIG. 13A) KPC mice were sub-lethally irradiated at 6 weeks of age and packed with 10×10^6 hematopoietic bone marrow cells and the survival was monitored (n=5 per group; *p<0.05, Log-rank test). (FIG. 13B) Quantification of normal ducts and PanIN of KPC mice treated as in (A) (n=6 per group). (FIG. 13C) CD4^+ T cells infiltrated in the pancreas were analyzed for TNFα and IFNγ expression by flow cytometry after treatment with (11R) 71-85 or (11R) Scr. Bar graphs show the average percentage of indicated cytokine secreting cells. (n=8 per group; *p<0.05, NS=not significant, unpaired two-tailed Student's t-test). (FIG. 13D) KPC mice were treated as in (A) and the expression of different tumor promoting factors was analyzed in isolated pancreatic epithelial cells by quantitative real-time PCR (n=6 per group).
KPC mice provide a genetic model of murine pancreatic tumors that closely mimics the human disease. KPC (KrasG12D/^+; LSLTrp53R172H/^+; Pdx-1-Cre) mice express K-ras in pancreatic epithelium, and when made heterozygous for p53, develop spontaneous tumors starting at approximately 8-10 weeks of age (Hingorani et al., Cancer Cell 7(5):469-483, 2005). This involves the formation of pancreatic intraepithelial neoplasia precursor lesions (PanIN) and progression to fully-developed carcinoma with surrounding stromal and inflammatory reactions (Hingorani et al., Cancer Cell 7(5):469-483, 2005).
Given these findings, further experiments were conducted to determine if inhibition of the alternative pathway in KPC mice would alter disease progression. KPC mice were treated with intravenous (11R)-71-85 or (11R)-Scrambled starting at 9 weeks of age, and the pancreas was histologically evaluated 3.5 weeks later. Thirty-three percent (2 of 6) of mice treated with (11R)-Scrambled developed invasive carcinoma in the pancreas. […] In line with the reduced TNFα secretion, Irf4 mRNA expression was decreased in CD4^+ TILs after (11R)-71-85 treatment. […] The fact that early stage PanIN formation was present, but later pre-invasive stages were reduced, in (11R)-71-85-treated mice supports a role for T cell-derived TNFα in the progression of PanIN towards invasive carcinoma.

[1] = tested on: tumor-infiltrating T cells; assay: PANC02 model, cytokine expression of tumor infiltrating cells; type: in vivo, mice; conditions: 80 μg intra-tumor every other day for 1 week
Procedure: WT C57BL/6 mice were injected with 7.5×10^5 PANC02 cells. After 16 days, mice were injected with 80 μg of either (11R)-71-85 or (11R)-Scrambled (Scr) every other day for 1 week. Twenty-four hours after the last intra-tumor injection, tumor infiltrating cells were harvested and restimulated with PMA and ionomycin, or left unstimulated, in the presence of Golgi inhibitor for 4 hours. Expression of cytokines (IL-17A and TNFα—FIG. 10A; IL-10 and IFNγ—FIG. 10B) was determined by flow cytometry.
The effect of intra-tumor injection of (11R)-71-85 on cytokine secretion from tumor-infiltrating T cells was also evaluated in mice with pancreatic tumors. WT C57BL/6 mice were injected with 7.5×10^5 PANC02 cells and 16 days later mice received intra-tumor injections of 80 μg of (11R)-71-85 or (11R)-Scrambled every other day for 1 week. Twenty-four hours following the last injection, tumor infiltrating cells were harvested and restimulated with PMA and ionomycin, or left unstimulated, in the presence of Golgi inhibitor for 4 hours. Expression of TNF-α, IFNγ, IL-10 and IL-17 was determined by flow cytometry. […] There was no difference in TNF-α secretion after restimulation, which bypasses TCR signaling and activates the classical MAPK cascade. There was no difference between unstimulated and restimulated cells for the other cytokines tested (IFNγ, IL-10, and IL-17; FIGS. 10A-10B).

[2] = tested on: p38 (alternative activation pathway); assay: In vitro kinase assay: ATF2 phosphorylation by Zap70-activated p38; type: biochemical; conditions: (11R)-71-85 0.2-4.0 μg, (11R)-Ctrl 4.0 μg; 30 minutes at 30° C.; p38 activated with Zap70
Procedure: Purified p38 proteins were activated by incubating with active Zap70 in kinase buffer for 1 hour. (11R)-71-85 or (11R)-Ctrl was then added and incubated for 30 minutes at 30° C. One μg ATF2 and 10 μCi [^32P]ATP were then added and incubated for 45 minutes at 30° C. Phosphorylated products were resolved by SDS-PAGE, transferred to nitrocellulose membranes, and visualized by phosphorimager.
To test whether (11R)-71-85 can inhibit the alternative p38 activation pathway in vitro, an assay was performed to detect phosphorylation of activating transcription factor 2 (ATF2), a target of activated p38, in the presence and absence of (11R)-71-85. Purified p38 proteins were activated by incubation with active Zap70 in kinase buffer for 1 hour. (11R)-71-85 (0.2, 0.5, 1.0, 2.0 or 4.0 μg) or (11R)-Ctrl (4.0 μg) was then added and incubated for 30 minutes at 30° C. One μg ATF2 and 10 μCi [^32P]ATP were added and incubated for 45 minutes at 30° C. Phosphorylated products were resolved by SDS-PAGE, transferred to nitrocellulose membranes, and visualized by phosphorimager. […] In addition, the decrease in ATF2 phosphorylation was dependent on the dose of (11R)-71-85.

[3] = tested on: tumor-infiltrating T cells; assay: KPC mice, intracellular TNF-α of tumor infiltrating cells after intraperitoneal injection; type: in vivo; conditions: 80 μg intraperitoneal every other day for 1 month
Procedure: FIG. 12 is a panel of flow cytometry plots showing that intraperitoneal injection of (11R)-71-85 inhibits TNF-α secretion from tumor-infiltrating T cells from KPC mice. KPC mice are genetically engineered to develop pancreatic cancer because of oncogene expression and p53 haploinsufficiency. KPC mice received intraperitoneal injections of 80 μg of either (11R)-71-85 or (11R)-Scrambled every other day for 1 month. Twenty-four hours after the last injection, tumor infiltrating cells were harvested and restimulated with PMA and ionomycin, or left unstimulated, in the presence of Golgi inhibitor for 4 hours. Expression of intracellular TNF-α was determined by flow cytometry.
A second murine model of pancreatic cancer was used to evaluate the effect of (11R)-71-85 on cytokine secretion by tumor cells. KPC mice are genetically engineered to develop pancreatic cancer because of oncogene expression and p53 haploinsufficiency. KPC mice were administered 80 μg of either (11R)-71-85 or (11R)-Scrambled by intraperitoneal injection every other day for 1 month. Twenty-four hours after the last injection, tumor infiltrating cells were harvested and restimulated with PMA and ionomycin, or left unstimulated, in the presence of Golgi inhibitor for 4 hours. Expression of intracellular TNF-α was determined by flow cytometry (FIG. 12).

[4] = intravenous, compared to control

(11R)-71-85: fusion protein: 11 arginine residues added to the N-terminus of the Gadd45α 71-85 peptide (LQIHFTLIQAFCCEN; N-terminal 11 arginine; UniProt P24522 71-85, looked up, fragment)
Irf4 mRNA expression in CD4+ TILs (KPC mice; intravenous): decreased | progression towards high grade PanIN formation (PanIN3, carcinoma in situ) (KPC mice; intravenous from 9 weeks of age, 3.5 weeks): slowed | mice that developed invasive carcinoma in the pancreas (KPC mice; intravenous from 9 weeks of age, histology 3.5 weeks later): no mice | intrapancreatic fibro-inflammatory reaction (H&E) (KPC mice; intravenous, compared to (11R)-Scrambled): reduced | CD4+ tumor infiltrating lymphocytes expressing TNFα (KPC mice; [4]): reduced numbers | expression of IFNγ in CD4+ tumor infiltrating lymphocytes (KPC mice; [4]): slightly reduced | expression of Cc12 in pancreatic epithelial cells (KPC mice; quantitative real-time PCR): reduced | expression of Cc15 in pancreatic epithelial cells (KPC mice; quantitative real-time PCR): reduced | expression of Tgfβ in pancreatic epithelial cells (KPC mice; quantitative real-time PCR): reduced | expression of Vegf in pancreatic epithelial cells (KPC mice; quantitative real-time PCR): reduced | expression of the other cytokines tested (IFNγ, IL-10, and IL-17) ([1]; unstimulated and restimulated cells): no difference | TNF-α secretion after restimulation with PMA and ionomycin ([1]; versus (11R)-Scrambled): no difference | TNF-α secretion, unstimulated tumor infiltrating cells ([1]; versus (11R)-Scrambled): reduced | phosphorylation of ATF2 [2]: decrease in phosphorylation of ATF2 | TNF-α secretion by tumor-infiltrating T cells [3]: inhibits
